The molecules below were run against human TRPV4 (Homo sapiens (Human), UniProt Q9HBA0) (assay: Test Example 1: measurement of TRPV4 inhibitory activity (Fluo 4-AM, FLIPR TETRA, 4α-PDD 1 μmol/L)). Details: hTRPV4/CHO cells, 4α-PDD 1 μmol/L.
Type: cell-based
Protocol: For each compound, TRPV4 inhibitory activity was measured using cells.
(1) The TRPV4 inhibitory activity was measured using CHO-K1 cells stably expressing human TRPV4 (hTRPV4/CHO cells).
(2) In the day before the experimental day, frozen cell were thawed and washed with the culture medium (MEM-α, 10% FBS, 2 mmol/L GlutaMax, 50 unit Penicillin, 50 μg/mL Streptomycin). Then cells were suspended in the culture medium.
(3) The 384-well plates which hTRPV4/CHO cells were seeded at densities of 4000 cells/well in the culture medium and cultured in a CO2 incubator in the presence of 5% CO2 at 37° C. for overnight was used as assay plates.
(4) The assay plate was washed with assay buffer (Hanks, 20 mmol/L HEPES, 2.5 mmol/L probenecid, pH7.4), and the buffer were remained at 20 μL/well.
(5) 10 μl of dye loading buffer (9 μmol/L Fluo 4-AM, 0.09% Pluronic F-127/assay buffer) was added to each well, then the assay plate was incubated in a CO2 incubator in the presence of 5% CO2 at 37° C. for one hour. (final 3 μmol/L Fluo4-AM).
(6) The assay plate was washed with the assay buffer, and the buffers were remained at 20 μL/well. Then the assay plate was incubated for 10 min at room temperature.
(7) Diluted compound solution was dispensed to each well in the compound plate, and mixed with built-in Pipette and Mixer of the Fluorescence analysis system FLIPR TETRA (Molecular devices).
(8) After incubation for 5 min, 20 μL of 4α-PDD solution were applied to each well of assay plate and mixed with the FLIPR TETRA. (final 1 μmol/L 4α-PDD)
(9) The fluorescent intensity was measured with FLIPR TETRA system for 10 min from the point of time addition the compound solution, at Ex 470-495 nm, Em 515-575 nm wavelength.
TRPV4 inhibitory activity (IC50 value and Ki value) of a compound was evaluated according to the following procedure.
(10) In the presence of the compound, the difference between maximal and minimal of fluorescent intensity value for 5 min from just before addition of 4α-PDD solution was calculated, and it was referred as Max-Min value. Max-Min value of the Ruthenium Red at 20 μM was defined as 100% inhibitory activity, Max-Min value in the absence of the compound was defined as 0% inhibitory activity. The TRPV4 inhibitory activity of the compound was calculated by the following formula. (1−(Max-Min value of the compound−100% inhibitory activity)/(0% inhibitory activity−100% inhibitory activity))×100 (11) Inhibitory activity was calculated at 10 points with three fold serial dilution, in the final concentration of the compound from 10 μmmol/L to 0.5 nmol/L, the IC50 value was calculated by logistic approximation method. (12) In the absence of the compound, the fluorescent intensity was measured as the same method with 10, 1, 0.5, 0.2, and 0 μmol/L as final concentration of 4α-PDD. The difference of minimal and maximal fluorescent intensity value for 5 min from just before addition of 4α-PDD solution was calculated, and it was referred as Max-Min value. Max-Min value of the 4α-PDD at 10 μmol/L was defined as 100% activity, Max-Min value in the absence of 4α-PDD was defined as 0% activity. The TRPV4 activity of each concentration of 4α-PDD was calculated by the following formula. (Max-Min value of the each 4α-PDD concentration−0% activity)/(100% activity−0% activity))×100 (13) Effective activity was calculated in 5 concentrations of 4α-PDD the above. The EC50 value was calculated by logistic approximation method. The Ki value of a compound was calculated by the following formula. Ki (nmol/L)=IC50 value (nmol/L)/(1+[…] (test 4α-PDD concentration (nmol/L)/EC50 value (nmol/L))

human TRPV4, sequence (Q9HBA0 whole entry): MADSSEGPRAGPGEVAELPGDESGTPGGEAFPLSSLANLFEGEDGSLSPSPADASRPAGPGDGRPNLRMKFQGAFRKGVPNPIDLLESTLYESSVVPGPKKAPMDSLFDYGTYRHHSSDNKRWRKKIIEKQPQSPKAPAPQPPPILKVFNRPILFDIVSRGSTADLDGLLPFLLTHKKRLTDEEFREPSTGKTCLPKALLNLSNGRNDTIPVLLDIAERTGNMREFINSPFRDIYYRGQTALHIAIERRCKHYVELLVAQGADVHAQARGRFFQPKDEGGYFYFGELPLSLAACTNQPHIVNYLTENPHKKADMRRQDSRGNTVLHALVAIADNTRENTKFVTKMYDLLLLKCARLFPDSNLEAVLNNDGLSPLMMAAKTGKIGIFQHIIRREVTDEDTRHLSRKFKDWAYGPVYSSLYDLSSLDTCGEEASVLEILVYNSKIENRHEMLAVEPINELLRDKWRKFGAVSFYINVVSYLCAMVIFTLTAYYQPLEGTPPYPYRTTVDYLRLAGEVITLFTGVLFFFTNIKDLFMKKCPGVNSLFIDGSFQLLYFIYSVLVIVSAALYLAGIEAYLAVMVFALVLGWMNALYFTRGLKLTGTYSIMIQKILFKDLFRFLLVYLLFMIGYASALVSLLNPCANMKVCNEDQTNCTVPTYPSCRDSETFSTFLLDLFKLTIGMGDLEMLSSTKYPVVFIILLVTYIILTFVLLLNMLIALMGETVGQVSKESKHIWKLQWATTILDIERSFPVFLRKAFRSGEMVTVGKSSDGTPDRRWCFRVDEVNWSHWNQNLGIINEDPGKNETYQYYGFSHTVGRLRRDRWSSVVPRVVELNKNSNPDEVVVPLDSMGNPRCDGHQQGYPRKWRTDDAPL

Row | SMILES | IC50 [µM]
1 | Cc1c(C(=O)Nc2cccc(C(F)(F)F)c2)cc(C2CCCCC2)n1CCCN1CCOCC1 [Compound I-072] | 0.045
2 | Cc1c(C(=O)Nc2cccc(C(F)(F)F)c2)cc(C2CCN(C(=O)OCc3ccccc3)CC2)n1CCCN1CCOCC1 [Compound I-075] | 0.27
3 | CCOC(=O)CCn1c(C(C)(C)C)cc(C(=O)Nc2cccc(C(F)(F)F)c2)c1C [Compound I-090] | 1.1
4 | Cc1c(C(=O)Nc2cccc(C(F)(F)F)c2)cc(C(C)(C)C)n1CCC(=O)N1CCOCC1 [Compound I-091] | 1.5
5 | CNC(=O)CCn1c(C(C)(C)C)cc(C(=O)Nc2cccc(C(F)(F)F)c2)c1C [Compound I-092] | 6.4
6 | Cc1c(C(=O)Nc2cccc(C(F)(F)F)c2)cc(C(C)(C)C)n1CCC(=O)N1CCNCC1 [Compound I-093] | 1.4
7 | CNS(=O)(=O)CCn1c(C(C)(C)C)cc(C(=O)Nc2cccc(C(F)(F)F)c2)c1C [Compound I-094] | 6.1
8 | Cc1c(C(=O)Nc2cccc(C(F)(F)F)c2)cc(C(C)(C)C)n1CCS(=O)(=O)N1CCOCC1 [Compound I-095] | 0.97
9 | CNC(C)CCn1c(C(C)(C)C)cc(C(=O)Nc2cccc(C(F)(F)F)c2)c1C (centres unmarked) [Compound I-096] | 0.42
10 | Cc1c(C(=O)Nc2cccc(C(F)(F)F)c2)cc(C(C)(C)C)n1CCC(C)N1CCOCC1 (centres unmarked) [Compound I-097] | 0.43
11 | Cc1c(C(=O)Nc2cccc(C(F)(F)F)c2)cc(C(C)(C)C)n1CCS(=O)(=O)N1CCNCC1 [Compound I-098] | 1.9
12 | Cc1c(C(=O)Nc2cccc(C(F)(F)F)c2)cc(C(C)(C)C)n1C1CCNCC1 [Compound I-099] | 5.9
13 | CNCC(C)(C)Cn1c(C(C)(C)C)cc(C(=O)Nc2cccc(C(F)(F)F)c2)c1C [Compound I-100] | 0.83
14 | CC(=O)N1CCC(n2c(C(C)(C)C)cc(C(=O)Nc3cccc(C(F)(F)F)c3)c2C)CC1 [Compound I-101] | 7.4
15 | Cc1c(C(=O)Nc2cccc(C(F)(F)F)c2)cc(C(C)(C)C)n1C1CCN(S(C)(=O)=O)CC1 [Compound I-102] | 4.2
16 | Cc1c(S(=O)(=O)NCc2cccc(C(F)(F)F)c2)cc(C(C)(C)C)n1CCCN1CCOCC1 [Compound I-104] | 7.7
17 | Cc1c(C(=O)Nc2cccc(C(F)(F)F)c2)cc(C(C)(C)C)n1C1CCN(C)CC1 [Compound I-106] | 3.9
18 | COC(=O)CN1CCC(n2c(C(C)(C)C)cc(C(=O)Nc3cccc(C(F)(F)F)c3)c2C)CC1 [Compound I-107] | 6.6
19 | Cc1c(C(=O)Nc2cccc(C(F)(F)F)c2)cc(C(C)(C)C)n1CC(C)(C)CN1CCOCC1 [Compound I-108] | 0.54

Same assay, conditions: hTRPV4/CHO cells, calculated from IC50 and 4α-PDD EC50

Row | SMILES | Ki [µM]
20 | Cc1c(C(=O)Nc2cccc(C(F)(F)F)c2)cc(C2CCCCC2)n1CCCN1CCOCC1 [Compound I-072] | 0.021
21 | Cc1c(C(=O)Nc2cccc(C(F)(F)F)c2)cc(C2CCN(C(=O)OCc3ccccc3)CC2)n1CCCN1CCOCC1 [Compound I-075] | 0.13
22 | CCOC(=O)CCn1c(C(C)(C)C)cc(C(=O)Nc2cccc(C(F)(F)F)c2)c1C [Compound I-090] | 0.38
23 | Cc1c(C(=O)Nc2cccc(C(F)(F)F)c2)cc(C(C)(C)C)n1CCC(=O)N1CCOCC1 [Compound I-091] | 0.56
24 | CNC(=O)CCn1c(C(C)(C)C)cc(C(=O)Nc2cccc(C(F)(F)F)c2)c1C [Compound I-092] | 2.4
25 | Cc1c(C(=O)Nc2cccc(C(F)(F)F)c2)cc(C(C)(C)C)n1CCC(=O)N1CCNCC1 [Compound I-093] | 0.53
26 | CNS(=O)(=O)CCn1c(C(C)(C)C)cc(C(=O)Nc2cccc(C(F)(F)F)c2)c1C [Compound I-094] | 2.2
27 | Cc1c(C(=O)Nc2cccc(C(F)(F)F)c2)cc(C(C)(C)C)n1CCS(=O)(=O)N1CCOCC1 [Compound I-095] | 0.38
28 | CNC(C)CCn1c(C(C)(C)C)cc(C(=O)Nc2cccc(C(F)(F)F)c2)c1C (centres unmarked) [Compound I-096] | 0.13
29 | Cc1c(C(=O)Nc2cccc(C(F)(F)F)c2)cc(C(C)(C)C)n1CCC(C)N1CCOCC1 (centres unmarked) [Compound I-097] | 0.13
30 | Cc1c(C(=O)Nc2cccc(C(F)(F)F)c2)cc(C(C)(C)C)n1CCS(=O)(=O)N1CCNCC1 [Compound I-098] | 0.59
31 | Cc1c(C(=O)Nc2cccc(C(F)(F)F)c2)cc(C(C)(C)C)n1C1CCNCC1 [Compound I-099] | 2.1
32 | CNCC(C)(C)Cn1c(C(C)(C)C)cc(C(=O)Nc2cccc(C(F)(F)F)c2)c1C [Compound I-100] | 0.29
33 | CC(=O)N1CCC(n2c(C(C)(C)C)cc(C(=O)Nc3cccc(C(F)(F)F)c3)c2C)CC1 [Compound I-101] | 2.6
34 | Cc1c(C(=O)Nc2cccc(C(F)(F)F)c2)cc(C(C)(C)C)n1C1CCN(S(C)(=O)=O)CC1 [Compound I-102] | 1.5
35 | Cc1c(S(=O)(=O)NCc2cccc(C(F)(F)F)c2)cc(C(C)(C)C)n1CCCN1CCOCC1 [Compound I-104] | 2.7
36 | Cc1c(C(=O)Nc2cccc(C(F)(F)F)c2)cc(C(C)(C)C)n1C1CCN(C)CC1 [Compound I-106] | 1.2
37 | COC(=O)CN1CCC(n2c(C(C)(C)C)cc(C(=O)Nc3cccc(C(F)(F)F)c3)c2C)CC1 [Compound I-107] | 2.1
38 | Cc1c(C(=O)Nc2cccc(C(F)(F)F)c2)cc(C(C)(C)C)n1CC(C)(C)CN1CCOCC1 [Compound I-108] | 0.17
